Common to all, as to test: NCI anticancer screen, dose series, 48 h
For assay [1], the system named is SK-MEL-2.
Assay [2] deals with UO-31.
Assay [3] concerns OVCAR-4.
Assay [4] has as its system SK-OV-3.
Assay [5] has as its system CAKI-1.
Assay [6] relates to BT-549.
For assay [7], the system named is T47D.
The test system of assay [8] is K562.
Assay [9] relates to UACC-62.
In assay [10] the test system is Malme-3M.
Assay [11] concerns NCI-H460.
The test system of assay [12] is HCC 2998.
Assay [13] has as its system PC-3.
For assay [14], the system named is SF-539.
For assay [15], the system named is M14.
For assay [16], the system named is HL-60.
Assay [17] relates to UACC-257.
In assay [18] the test system is SF-295.
The test system of assay [19] is KM12.

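Following 48 hours of exposure in 96-well plates, responses at five concentrations were used to interpolate endpoints linearly. The concentration for 50% growth inhibition is given as GI50.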 Activity calls are given as the source filed them. Cut-off read from the data, not from the text of the source: active = GI50 up to about 1.1 µM and inactive = higher.

Turning to `CC1CC2(OC2C)C(=O)OC2CCN(C)C/C=C(/COC(=O)C1(C)O)C2=O` (stereo unspecified), the GI50 in assay [1], in assay [2], in assay [3], in [4], in assay [5] and in assay [6] was > 100 µM (inactive) each time. The GI50 in assay [7], in [8], in assay [9], in assay [10], in assay [11] and in assay [12] was > 100 µM (inactive) throughout. In addition, the GI50 in [13], in assay [14], in assay [15], in assay [16], in assay [17] and in assay [18] was > 100 µM (inactive) throughout. Besides, in assay [19], the GI50 is > 100 µM (inactive).
Consider `Clc1ccc(/N=C/c2cc3cc(Br)ccc3nc2Cl)cc1`, for which the GI50 in assay [1] was 10.8 µM (inactive); in [2], 36.8 µM (inactive); in assay [3], 5.12 µM (inactive); in assay [5], 1.95 µM (inactive); in [6], > 50 µM (inactive); in assay [7] it was > 50 µM (inactive). Also, the GI50 was 4.34 µM (inactive) in [8]; > 50 µM (inactive) in assay [10]; 18.1 µM (inactive) in assay [11]; 32.3 µM (inactive) in [12]; 15.7 µM (inactive) in assay [13]; 21.4 µM (inactive) in assay [14]. Besides, the GI50 in assay [15] is 14.4 µM (inactive); in assay [16] it was 9.82 µM (inactive); in assay [17] it was 34.1 µM (inactive); in assay [19], 20 µM (inactive).
Take `COc1ccc(/C=C2\NC(=S)N(/C=C3\C(=O)Oc4ccccc4C3=O)C2=O)cc1OC`: the GI50 in assay [1] is > 100 µM (inactive); in assay [2], 54.6 µM (inactive); in assay [3], > 100 µM (inactive); in assay [4] it was > 100 µM (inactive); in [5], > 100 µM (inactive); in [6], > 100 µM (inactive). Also, the GI50 in assay [7], in assay [8], in [9], in [11], in assay [12] and in [13] was > 100 µM (inactive) each time. In addition, the GI50 in assay [14] was > 100 µM (inactive); in [15], > 100 µM (inactive); in assay [16], 22.4 µM (inactive); in assay [17], > 100 µM (inactive); in [18] it was > 100 µM (inactive); in assay [19] it was 90.2 µM (inactive).
`O=C1O[C@H]2C3C4CCC(C4[C@@H]2I)[C@H]13` (stereo partly specified): the GI50 in [1], in assay [2], in assay [3], in assay [5], in assay [6] and in assay [7] was > 100 µM (inactive) in each case. Moreover, the GI50 in assay [8], in assay [9], in [10], in [11], in assay [12] and in assay [13] was > 100 µM (inactive) throughout. Also, the GI50 in assay [14], in assay [15], in assay [16], in assay [17], in [18] and in assay [19] was > 100 µM (inactive) each time.
On to `CS(=O)(=O)Nc1ccc2ccccc2c1-c1c(NS(C)(=O)=O)ccc2ccccc12`, for which the GI50 in assay [1], in [2], in [3], in [4], in assay [5] and in assay [6] was > 25 µM (inactive) throughout. For the same molecule, the GI50 in assay [7], in assay [8], in assay [10], in [11], in assay [12] and in assay [13] was > 25 µM (inactive) each time. In addition, the GI50 in [14], in assay [15], in assay [16], in assay [17], in assay [18] and in assay [19] was > 25 µM (inactive) throughout.
For `OCCNCCN1CCN(CCCN2c3ccccc3Sc3ccc(C(F)(F)F)cc32)CC1`, the GI50 was 21.5 µM (inactive) in assay [1]; 25.8 µM (inactive) in assay [3]; 33.6 µM (inactive) in assay [4]; 76.2 µM (inactive) in assay [5]; 85.9 µM (inactive) in [6]; 27.1 µM (inactive) in assay [7]. The GI50 is 22.3 µM (inactive) in assay [9]; 29.5 µM (inactive) in [10]; 23.2 µM (inactive) in assay [11]; 27.4 µM (inactive) in assay [12]; 32 µM (inactive) in assay [13]; 20.2 µM (inactive) in assay [14]. In addition, the GI50 in assay [15] was 15.3 µM (inactive); in assay [16] it was > 100 µM (inactive); in assay [17], 20.3 µM (inactive); in assay [18] it was 20.4 µM (inactive); in assay [19], 27.2 µM (inactive).
With `C/C(=N/OC(=O)c1cccc2c(=O)c3ccccc3[nH]c12)[C@H]1CC[C@H]2[C@@H]3CCC4=C/C(=N/OC(=O)c5cccc6c(=O)c7ccccc7[nH]c56)CC[C@]4(C)[C@H]3CC[C@]12C`, the GI50 in assay [1] is 12.8 µM (inactive); in assay [2], 15 µM (inactive); in [3] it was 34 µM (inactive); in [4] it was 27 µM (inactive); in [5], 21.2 µM (inactive); in [6], 17.7 µM (inactive). For the same molecule, the GI50 was 14.5 µM (inactive) in assay [7]; 4.97 µM (inactive) in assay [8]; 14.1 µM (inactive) in assay [9]; 22.2 µM (inactive) in assay [10]; 14 µM (inactive) in [12]; 10.5 µM (inactive) in [13]. Besides, the GI50 in [14] was 15.1 µM (inactive); in assay [15], 14.6 µM (inactive); in assay [16], 3.91 µM (inactive); in assay [17] it was 17.1 µM (inactive); in assay [18], 16.8 µM (inactive); in assay [19], 15.2 µM (inactive).
In the case of `Cc1ccc(/C=N/Nc2ccccn2)s1`, the GI50 was > 100 µM (inactive) in assay [1]; 97.7 µM (inactive) in [2]; > 100 µM (inactive) in assay [3]; > 100 µM (inactive) in assay [4]; > 100 µM (inactive) in assay [5]; 81.3 µM (inactive) in assay [6]. The GI50 is > 57 µM (inactive) in [7]; > 100 µM (inactive) in [9]; > 100 µM (inactive) in assay [10]; > 100 µM (inactive) in assay [11]; > 100 µM (inactive) in [12]; > 100 µM (inactive) in [13]. Also, the GI50 in assay [14] is > 100 µM (inactive); in assay [15], > 100 µM (inactive); in assay [16], > 76.7 µM (inactive); in assay [17], > 100 µM (inactive); in assay [18], > 100 µM (inactive); in assay [19], > 100 µM (inactive).
With `O=c1oc(-c2ccc(O)c(O)c2)cc2cccc(O)c12` [THUNBERGINOL A], the GI50 in assay [1] was 26.1 µM (inactive); in assay [2], 14.7 µM (inactive); in assay [3], 20.1 µM (inactive); in assay [4], 29.4 µM (inactive); in [5] it was 6.71 µM (inactive); in assay [6] it was 15.6 µM (inactive). The GI50 was 0.871 µM (active) in assay [7]; 22.1 µM (inactive) in assay [8]; 31.3 µM (inactive) in assay [10]; 13.4 µM (inactive) in assay [11]; 12.8 µM (inactive) in [12]; 11.1 µM (inactive) in [13]. The GI50 in [14] was 23.9 µM (inactive); in assay [15], 19.5 µM (inactive); in assay [16], 17.1 µM (inactive); in [17], 22.6 µM (inactive); in [18], 27.5 µM (inactive); in [19] it was 11.4 µM (inactive).
With `COC(=O)CCC(C)[C@H]1CCC2C3C(C[C@H](OC(C)=O)[C@@]21C)[C@@]1(C)CCC2(C[C@H]1C[C@H]3OC(C)=O)OOC1(CCCC1)OO2` (stereo partly specified), the GI50 in [1] is > 100 µM (inactive); in assay [2] it was 10.1 µM (inactive); in assay [3], 12.6 µM (inactive); in assay [4], > 100 µM (inactive); in assay [5], 12.2 µM (inactive); in assay [6] it was 46 µM (inactive). Further, the GI50 was 7.19 µM (inactive) in assay [7]; 6.3 µM (inactive) in [8]; > 100 µM (inactive) in assay [10]; 6.82 µM (inactive) in [11]; > 100 µM (inactive) in [12]; 4.47 µM (inactive) in assay [13]. The GI50 was > 100 µM (inactive) in assay [14]; > 100 µM (inactive) in assay [15]; 5.02 µM (inactive) in assay [16]; 39.2 µM (inactive) in assay [17]; 83.6 µM (inactive) in [18]; 23.3 µM (inactive) in assay [19].
As for `Cc1cccc(-c2nc3ccc([N+](=O)[O-])cc3c(=O)o2)c1`, the GI50 is 91.2 µM (inactive) in assay [1]; 43.8 µM (inactive) in [2]; 68.9 µM (inactive) in assay [3]; > 100 µM (inactive) in assay [4]; > 100 µM (inactive) in assay [5]; 51.4 µM (inactive) in assay [6]. Further, the GI50 in assay [7] was 47.5 µM (inactive); in assay [8], 35.3 µM (inactive); in assay [9] it was 21.1 µM (inactive); in assay [10], 51.4 µM (inactive); in [11], 51.8 µM (inactive); in [12], > 100 µM (inactive). The GI50 in assay [13] is 58.5 µM (inactive); in assay [14], 27.9 µM (inactive); in assay [16], 59.7 µM (inactive); in [17] it was 64.3 µM (inactive); in assay [18], 36.1 µM (inactive); in assay [19] it was 90.6 µM (inactive).

(Values after ChEMBL document CHEMBL1201862, “PubChem BioAssay data set” (2004).)
